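How tested: cells in 96-well plates exposed to compound for 48 hours at five concentrations. Here, GI50 denotes the concentration required for 50% inhibition of growth.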 The source made the active and inactive calls. No stated cut-off is given here; in the data, active = GI50 up to about 1.1 µM and inactive = higher.
Key:
Experiment in all cases: DTP human tumour cell line panel, 48 h
[1] = test system: EKVX
[2] = test system: ACHN
[3] = test system: Malme-3M
[4] = test system: CCRF-CEM
[5] = test system: UO-31
[6] = test system: SK-MEL-28
[7] = test system: NCI-H460
[8] = test system: TK-10
[9] = test system: T47D
[10] = test system: HL-60
[11] = test system: SNB-75
[12] = test system: BT-549
[13] = test system: DU-145
[14] = test system: NCI/ADR-RES
[15] = test system: UACC-62
[16] = test system: OVCAR-8
[17] = test system: M14
[18] = test system: COLO 205
[19] = test system: OVCAR-5
[20] = test system: UACC-257
[21] = test system: HCT-116
[22] = test system: A549
[23] = test system: CAKI-1
[24] = test system: A498
[25] = test system: HOP-92
[26] = test system: RPMI-8226
[27] = test system: SR
[28] = test system: 786-0
[29] = test system: HCC 2998
[30] = test system: SK-OV-3
[31] = test system: KM12
[32] = test system: SF-268
[33] = test system: MOLT-4
[34] = test system: SK-MEL-2
[35] = test system: PC-3
[36] = test system: SF-295
[37] = test system: IGROV-1
[38] = test system: LOX IMVI
[39] = test system: MCF7
[40] = test system: MDA-MB-435
[41] = test system: RXF 393
[42] = test system: SK-MEL-5
[43] = test system: NCI-H23
[44] = test system: HCT-15
[45] = test system: MDA-N
[46] = test system: Hs-578T
[47] = test system: HOP-62
[48] = test system: MDA-MB-231
[49] = test system: SNB-19
[50] = test system: K562
[51] = test system: NCI-H522
[52] = test system: SF-539
[53] = test system: SW-620
[54] = test system: OVCAR-3
[55] = test system: NCI-H226
[56] = test system: U-251
[57] = test system: SN12C
[58] = test system: HT-29
[59] = test system: OVCAR-4

`CCC(=O)NC(NNS(=O)(=O)c1ccc(C)cc1)(C(F)(F)F)C(F)(F)F` was tested, and the GI50 [1] was > 100 µM (inactive), the GI50 [2] was 49.9 µM (inactive) and the GI50 [3] was 59.4 µM (inactive). For the same compound, the GI50 [4] was 63.1 µM (inactive), the GI50 [5] was 34.2 µM (inactive) and the GI50 [6] was 20.3 µM (inactive). For the same compound, the GI50 [7] was 33.5 µM (inactive), the GI50 [8] was 54.1 µM (inactive) and the GI50 [9] was 96.8 µM (inactive). For the same compound, the GI50 [10] was 46.6 µM (inactive), the GI50 [11] was 51.9 µM (inactive) and the GI50 [12] was 29.7 µM (inactive). For the same compound, the GI50 [13] was > 100 µM (inactive), the GI50 [14] was 27.3 µM (inactive) and the GI50 [15] was 38.9 µM (inactive). For the same compound, the GI50 [16] was 44.9 µM (inactive), the GI50 [17] was 37.6 µM (inactive) and the GI50 [18] was > 100 µM (inactive). For the same compound, the GI50 [19] was > 100 µM (inactive), the GI50 [20] was 52 µM (inactive) and the GI50 [21] was 64.3 µM (inactive). The GI50 [22] was 35.7 µM (inactive), the GI50 [23] was > 100 µM (inactive) and the GI50 [24] was > 100 µM (inactive). The GI50 [25] was 37.6 µM (inactive), the GI50 [26] was 54.3 µM (inactive) and the GI50 [27] was 39.4 µM (inactive). For the same compound, the GI50 [28] was > 100 µM (inactive), the GI50 [29] was > 10 µM (inactive) and the GI50 [30] was 64.3 µM (inactive). For the same compound, the GI50 [31] was 54.1 µM (inactive), the GI50 [32] was 55 µM (inactive) and the GI50 [33] was 80 µM (inactive). The GI50 [34] was > 100 µM (inactive), the GI50 [35] was 55.1 µM (inactive) and the GI50 [36] was > 100 µM (inactive). The GI50 [37] was 49.4 µM (inactive), the GI50 [38] was > 100 µM (inactive) and the GI50 [39] was 76 µM (inactive). For the same compound, the GI50 [40] was 18.7 µM (inactive), the GI50 [41] was 23.2 µM (inactive) and the GI50 [42] was 50 µM (inactive). The GI50 [43] was 48.9 µM (inactive), the GI50 [44] was 32.1 µM and the GI50 [45] was 18.5 µM (inactive). For the same compound, the GI50 [46] was 34.2 µM (inactive), the GI50 [47] was 65.2 µM (inactive) and the GI50 [48] was 30.8 µM (inactive). The GI50 [49] was > 100 µM (inactive), the GI50 [50] was 30.6 µM (inactive) and the GI50 [51] was 30.7 µM (inactive). For the same compound, the GI50 [52] was 54 µM (inactive), the GI50 [53] was 33.7 µM (inactive) and the GI50 [54] was > 10 µM (inactive). The GI50 [55] was > 100 µM (inactive) and the GI50 [56] was > 10 µM (inactive).

In the case of `C[N+]1([O-])C2CCC1CC(OC(=O)C(CO)c1ccccc1)C2` (stereo not given), the GI50 [1] is reported as > 100 µM (inactive), the GI50 [2] is reported as > 100 µM (inactive) and the GI50 [3] is reported as > 100 µM (inactive). The GI50 [4] was > 100 µM (inactive), the GI50 [5] was > 100 µM (inactive) and the GI50 [6] was > 100 µM (inactive). For the same compound, the GI50 [7] was > 100 µM (inactive), the GI50 [8] was > 100 µM (inactive) and the GI50 [9] was > 100 µM (inactive). For the same compound, the GI50 [10] was > 100 µM (inactive), the GI50 [57] was > 81.7 µM (inactive) and the GI50 [11] was > 100 µM (inactive). The GI50 [12] was > 66.5 µM (inactive), the GI50 [13] was > 100 µM (inactive) and the GI50 [14] was > 33.4 µM (inactive). For the same compound, the GI50 [15] was > 100 µM (inactive), the GI50 [16] was > 100 µM (inactive) and the GI50 [17] was > 100 µM (inactive). The GI50 [18] was > 100 µM (inactive), the GI50 [19] was > 100 µM (inactive) and the GI50 [20] was > 100 µM (inactive). For the same compound, the GI50 [21] was > 100 µM (inactive), the GI50 [22] was > 100 µM (inactive) and the GI50 [23] was > 100 µM (inactive). The GI50 [24] was > 100 µM (inactive), the GI50 [25] was > 63.2 µM (inactive) and the GI50 [58] was > 100 µM (inactive). For the same compound, the GI50 [26] was > 100 µM (inactive), the GI50 [27] was > 36.6 µM (inactive) and the GI50 [28] was > 100 µM (inactive). For the same compound, the GI50 [29] was > 100 µM (inactive), the GI50 [30] was > 100 µM (inactive) and the GI50 [31] was > 100 µM (inactive). For the same compound, the GI50 [59] was > 100 µM (inactive), the GI50 [32] was > 100 µM (inactive) and the GI50 [33] was > 100 µM (inactive). For the same compound, the GI50 [34] was > 100 µM (inactive), the GI50 [35] was > 100 µM (inactive) and the GI50 [36] was > 100 µM (inactive). The GI50 [37] was > 100 µM (inactive), the GI50 [38] was > 100 µM (inactive) and the GI50 [39] was > 100 µM (inactive). For the same compound, the GI50 [40] was > 100 µM (inactive), the GI50 [41] was > 100 µM (inactive) and the GI50 [42] was > 100 µM (inactive). For the same compound, the GI50 [43] was > 33.8 µM (inactive), the GI50 [44] was > 55.8 µM and the GI50 [45] was > 100 µM (inactive). The GI50 [46] was > 100 µM (inactive), the GI50 [47] was > 100 µM (inactive) and the GI50 [48] was > 100 µM (inactive). For the same compound, the GI50 [49] was > 100 µM (inactive), the GI50 [50] was > 100 µM (inactive) and the GI50 [51] was > 100 µM (inactive). For the same compound, the GI50 [52] was > 100 µM (inactive), the GI50 [53] was > 100 µM (inactive) and the GI50 [54] was > 100 µM (inactive). For the same compound, the GI50 [55] was > 100 µM (inactive) and the GI50 [56] was > 100 µM (inactive).
